PubChem BioAssay (NCI)
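Here, GI50 denotes the concentration required for 50% inhibition of growth. TGI marks complete inhibition of growth.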

What was measured:
Assay in all cases: NCI tumour cell line growth inhibition, 384-well format
[1] = test system: SF-539 CNS
[2] = test system: HOP-92 NSCLC
[3] = test system: UACC-62 melanoma
[4] = test system: OVCAR-8 ovarian
[5] = test system: SK-MEL-28 melanoma
[6] = test system: CCRF-CEM leukemia
[7] = test system: RPMI-8226 leukemia
[8] = test system: HCT-15 colon
[9] = test system: SNB-75 CNS
[10] = test system: SK-MEL-5 melanoma
[11] = test system: T-47D breast
[12] = test system: NCI/ADR-RES ovarian
[13] = test system: HCC-2998 colon

SMILES: COc1cc(C)[nH]c(=O)c1CN1CCc2c(Cl)cc([C@H](OC)C3COC3)c(Cl)c2C1=O
- GI50 [1]: > 100 µM
- TGI [1]: > 100 µM
- GI50 [2]: > 100 µM
- TGI [2]: > 100 µM
- GI50 [3]: > 100 µM
- TGI [3]: > 100 µM
- GI50 [4]: > 100 µM
- TGI [4]: > 100 µM
- GI50 [5]: > 100 µM
- TGI [5]: > 100 µM
- GI50 [6]: > 75.8 µM
- TGI [6]: > 100 µM
- GI50 [7]: 0.0849 µM
- GI50 [8]: > 100 µM
- TGI [8]: > 100 µM
- GI50 [9]: > 100 µM
- TGI [9]: > 100 µM
- GI50 [10]: > 100 µM
- TGI [10]: > 100 µM
- GI50 [11]: > 91.9 µM
- TGI [11]: > 100 µM
- GI50 [12]: > 100 µM
- TGI [12]: > 100 µM
- GI50 [13]: > 100 µM
- TGI [13]: > 100 µM

SMILES: C[C@@H](Oc1cc(NS(=O)(=O)N2CCC2)nc(SCc2cccc(F)c2F)n1)[C@@H](O)CO
- GI50 [1]: > 100 µM
- TGI [1]: > 100 µM
- GI50 [2]: > 88.1 µM
- TGI [2]: > 100 µM
- GI50 [3]: > 57.2 µM
- TGI [3]: > 100 µM
- GI50 [4]: > 100 µM
- TGI [4]: > 100 µM
- GI50 [5]: > 100 µM
- TGI [5]: > 100 µM
- GI50 [6]: > 63.3 µM
- TGI [6]: > 100 µM
- GI50 [7]: 20 µM
- TGI [7]: > 60 µM
- GI50 [8]: > 100 µM
- TGI [8]: > 100 µM
- GI50 [9]: > 100 µM
- TGI [9]: > 100 µM
- GI50 [10]: > 59.4 µM
- TGI [10]: > 100 µM
- GI50 [11]: > 100 µM
- TGI [11]: > 100 µM
- GI50 [12]: > 100 µM
- TGI [12]: > 100 µM
- GI50 [13]: > 77.4 µM
- TGI [13]: > 100 µM
